Reference: ChEMBL document CHEMBL3817761, “Chenopodium album metabolites act as dual topoisomerase inhibitors and induce apoptosis in the MCF7 cell line” (Medchemcomm, 2016)
Activity calls are given as the source filed them. The calls are words filed in the database; no cut-off is given here.

Assays:
MCF7 [1] = assay: Induction of apoptosis in human MCF7 cells assessed as late apoptotic cells at 11.33 uM after 48 hrs by Annexin-V-FITC/propidium iodide staining based flow cytometry relative to control; format: functional
MCF7 [2] = assay: Induction of apoptosis in human MCF7 cells assessed as rounded cells at 11.33 uM after 24 hrs by inverted phase contrast microscopy; format: functional, cell-based
MCF7 [3] = assay: Cell cycle arrest in human MCF7 cells assessed as accumulation at G0/G1 phase at 11.33 uM after 48 hrs by propidium iodide staining based flow cytometry (reference value: 59.7 %); format: functional
MCF7 [4] = assay: Induction of apoptosis in human MCF7 cells assessed as caspase 9 cleavage at 11.33 uM after 48 hrs by Western blot analysis; format: functional, cell-based
MCF7 [5] = assay: Induction of mitochondrial membrane depolarization in human MCF7 cells assessed as ratio of red to green fluorescence at 11.33 uM after 48 hrs by JC-1 staining based FACS assay (reference value: 9.1); format: functional
MCF7 [6] = assay: Induction of mitochondrial membrane depolarization in human MCF7 cells at 11.33 uM by JC-1 staining based FACS assay; format: functional, cell-based; details: TDE = time-dependent effect
MCF7 [7] = assay: Induction of ROS accumulation in human MCF7 cells at 11.33 uM after 12 hrs by CM-H2-DCFDA probe based flow cytometry (reference value: 5.1 %); format: functional
MCF7 [8] = assay: Induction of apoptosis in human MCF7 cells assessed as PARP-1 cleavage at 11.33 uM after 48 hrs by Western blot analysis; format: functional, cell-based
MCF7 [9] = assay: Induction of ROS accumulation in human MCF7 cells at 11.33 uM after 24 hrs by CM-H2-DCFDA probe based flow cytometry (reference value: 12.6 %); format: functional
MCF7 [10] = assay: Induction of apoptosis in human MCF7 cells assessed as viable cells at 11.33 uM after 48 hrs by Annexin-V-FITC/propidium iodide staining based flow cytometry (reference value: 99.2 %); format: functional; details: MCF7, 48 h, read-out: Activity
MCF7 [11] = assay: Induction of apoptosis in human MCF7 cells assessed as viable cells at 11.33 uM after 24 hrs by Annexin-V-FITC/propidium iodide staining based flow cytometry (reference value: 95.9 %); format: functional; details: MCF7, 24 h, read-out: Activity
MCF7 [12] = assay: Induction of mitochondrial membrane depolarization in human MCF7 cells assessed as ratio of red to green fluorescence at 11.33 uM after 24 hrs by JC-1 staining based FACS assay (reference value: 9.1); format: functional
MCF7 [13] = assay: Induction of apoptosis in human MCF7 cells assessed as caspase 7 cleavage at 11.33 uM after 48 hrs by Western blot analysis; format: functional, cell-based
MCF7 [14] = assay: Cell cycle arrest in human MCF7 cells assessed as accumulation at G2/M phase at 11.33 uM after 48 hrs by propidium iodide staining based flow cytometry (reference value: 19.8 %); format: functional
MCF7 [15] = assay: Cell cycle arrest in human MCF7 cells assessed as accumulation at S phase at 11.33 uM after 48 hrs by propidium iodide staining based flow cytometry (reference value: 20.6 %); format: functional
MCF7 [16] = assay: Cell cycle arrest in human MCF7 cells assessed as accumulation at G2/M phase at 11.33 uM after 24 hrs by propidium iodide staining based flow cytometry (reference value: 25 %); format: functional
MCF7 [17] = assay: Cell cycle arrest in human MCF7 cells assessed as accumulation at S phase at 11.33 uM after 24 hrs by propidium iodide staining based flow cytometry (reference value: 24.5 %); format: functional
MCF7 [18] = assay: Cell cycle arrest in human MCF7 cells assessed as accumulation at G0/G1 phase at 11.33 uM after 24 hrs by propidium iodide staining based flow cytometry (reference value: 50.3 %); format: functional
MCF7 [19] = assay: Induction of apoptosis in human MCF7 cells assessed as caspase 7 cleavage at 8.27 uM after 48 hrs by Western blot analysis; format: functional, cell-based
MCF7 [20] = assay: Induction of apoptosis in human MCF7 cells assessed as PARP-1 cleavage at 8.27 uM after 48 hrs by Western blot analysis; format: functional, cell-based
MCF7 [21] = assay: Induction of ROS accumulation in human MCF7 cells at 8.27 uM after 12 hrs by CM-H2-DCFDA probe based flow cytometry (reference value: 5.1 %); format: functional
MCF7 [22] = assay: Induction of apoptosis in human MCF7 cells assessed as rounded cells at 8.27 uM after 24 hrs by inverted phase contrast microscopy; format: functional, cell-based
MCF7 [23] = assay: Induction of mitochondrial membrane depolarization in human MCF7 cells at 8.27 uM by JC-1 staining based FACS assay; format: functional, cell-based; details: TDE = time-dependent effect
MCF7 [24] = assay: Induction of ROS accumulation in human MCF7 cells at 8.27 uM after 24 hrs by CM-H2-DCFDA probe based flow cytometry (reference value: 12.6 %); format: functional
MCF7 [25] = assay: Cell cycle arrest in human MCF7 cells assessed as accumulation at G0/G1 phase at 8.27 uM after 48 hrs by propidium iodide staining based flow cytometry (reference value: 59.7 %); format: functional
MCF7 [26] = assay: Induction of apoptosis in human MCF7 cells assessed as cell detachment at 8.27 uM after 24 hrs by inverted phase contrast microscopy; format: functional, cell-based
MCF7 [27] = assay: Cell cycle arrest in human MCF7 cells assessed as accumulation at S phase at 8.27 uM after 24 hrs by propidium iodide staining based flow cytometry (reference value: 24.5 %); format: functional
MCF7 [28] = assay: Induction of apoptosis in human MCF7 cells assessed as necrotic cells at 8.27 uM after 24 hrs by Annexin-V-FITC/propidium iodide staining based flow cytometry (reference value: 1.7 %); format: functional
MCF7 [29] = assay: Cell cycle arrest in human MCF7 cells assessed as accumulation at S phase at 8.27 uM after 48 hrs by propidium iodide staining based flow cytometry (reference value: 20.6 %); format: functional
MCF7 [30] = assay: Induction of mitochondrial membrane depolarization in human MCF7 cells at 8.27 uM after 48 hrs by JC-1 staining based FACS assay (reference value: 9.9 %); format: functional
MCF7 [31] = assay: Induction of mitochondrial membrane depolarization in human MCF7 cells at 8.27 uM after 24 hrs by JC-1 staining based FACS assay (reference value: 9.9 %); format: functional
MCF7 [32] = assay: Induction of apoptosis in human MCF7 cells assessed as late apoptotic cells at 8.27 uM after 24 hrs by Annexin-V-FITC/propidium iodide staining based flow cytometry (reference value: 0.1 %); format: functional
MCF7 [33] = assay: Cell cycle arrest in human MCF7 cells assessed as accumulation at G2/M phase at 8.27 uM after 24 hrs by propidium iodide staining based flow cytometry (reference value: 25 %); format: functional
MCF7 [34] = assay: Induction of apoptosis in human MCF7 cells assessed as viable cells at 8.27 uM after 48 hrs by Annexin-V-FITC/propidium iodide staining based flow cytometry (reference value: 99.2 %); format: functional; details: MCF7, 48 h, read-out: Activity
MCF7 [35] = assay: Induction of mitochondrial membrane depolarization in human MCF7 cells assessed as ratio of red to green fluorescence at 8.27 uM after 24 hrs by JC-1 staining based FACS assay (reference value: 9.1); format: functional
MCF7 [36] = assay: Induction of apoptosis in human MCF7 cells assessed as early apoptotic cells at 8.27 uM after 24 hrs by Annexin-V-FITC/propidium iodide staining based flow cytometry (reference value: 2.3 %); format: functional

## CC1(C)CC[C@]2(C(=O)O)CC[C@]3(C)C(=CC[C@@H]4[C@@]5(C)CC[C@H](O[C@@H]6O[C@H](C(=O)O)[C@@H](O)[C@H](O)[C@H]6O)C(C)(C)[C@@H]5CC[C@]43C)[C@@H]2C1
MCF7 [1]
  Activity: 1.3%
MCF7 [2]
  Activity: Active
MCF7 [3]
  Activity: 35.1%
MCF7 [4]
  Activity: Active
MCF7 [5]
  Ratio: 0.821
MCF7 [6]
  Activity: tde
MCF7 [7]
  Activity: 50.4%
MCF7 [8]
  Activity: Active
MCF7 [9]
  Activity: 99.9%
MCF7 [10]
  viability at 11.33 µM: 52%
MCF7 [11]
  viability at 11.33 µM: 87.5%
MCF7 [12]
  Ratio: 6.14
MCF7 [13]
  Activity: Active
MCF7 [14]
  Activity: 17%
MCF7 [15]
  Activity: 47.1%
MCF7 [16]
  Activity: 24.3%
MCF7 [17]
  Activity: 29.7%
MCF7 [18]
  Activity: 45.9%

## C[C@@H]1CC[C@@]2(OC1)O[C@H]1C[C@H]3[C@@H]4CC[C@H]5C[C@@H](O[C@@H]6O[C@H](CO)[C@H](O[C@@H]7O[C@H](CO)[C@@H](O)[C@H](O[C@@H]8OC[C@@H](O)[C@H](O)[C@H]8O)[C@H]7O[C@@H]7O[C@H](CO)[C@@H](O)[C@H](O)[C@H]7O)[C@H](O)[C@H]6O)CC[C@]5(C)[C@H]4CC[C@]3(C)[C@H]1[C@@H]2C [DEGALACTOTIGONIN]
MCF7 [19]
  Activity: Active
MCF7 [20]
  Activity: Active
MCF7 [21]
  Activity: 50.5%
MCF7 [22]
  Activity: Active
MCF7 [23]
  Activity: tde
MCF7 [24]
  Activity: 99.9%
MCF7 [25]
  Activity: 36.3%
MCF7 [26]
  Activity: Active
MCF7 [27]
  Activity: 27.5%
MCF7 [28]
  Activity: 3%
MCF7 [29]
  Activity: 40.1%
MCF7 [30]
  Activity: 69.6%
MCF7 [31]
  Activity: 9%
MCF7 [32]
  Activity: 0.5%
MCF7 [33]
  Activity: 28.5%
MCF7 [34]
  viability at 8.27 µM: 0.7%
MCF7 [35]
  Ratio: 9
MCF7 [36]
  Activity: 5.5%
